Results reported in patent US11726081B2, “Methods to identify modulators of tau protein structure” (REGENTS OF THE UNIVERSITY OF MINNESOTA, priority 2019, dated 2023).
Entries after “also recorded” stand apart in the source; their conditions may differ.

Columns and labels:
[1] = molecular target: purified WT tau proteins (Homo sapiens, UniProt P10636); experiment: Heparin induced thioflavin-T (ThT) aggregation assay; type: biochemical
Procedure: Thioflavin-T (ThT, Sigma, product no. T3516) was dissolved in PBS buffer and was filtered through a 0.2 μm syringe filter to make a stock solution of 2.5 mM. ThT was then diluted to […] prior to addition to the tau proteins. The samples for ThT measurements were prepared by mixing 25 μl of 20 μM tau proteins with 25 μl of 20 μM of ThT, resulting in final concentrations of 10 μM tau proteins and 10 μM ThT. DTT (5 mM) and heparin (0.4 mg/ml) were then added to the samples; a control sample lacked addition of heparin. Lastly, the samples were treated with MK-886 (0.5 μM or 5 μM) and gossypetin (50 μM) with DMSO added to the no-compound controls. The ThT samples (50 μl each) were transferred to a black 96-well non-binding surface microplate with clear bottom (Corning product no. 3655) and incubated at 37° C. with mild shaking (200 rpm) in the Cytation 3 plate reader. The ThT fluorescence was measured by the Cytation 3 plate reader through the bottom of the plate with excitation filter of 440 nm and emission filter of 480 nm. Readings were acquired every 20 minutes for a total of 120 hours.

[2] = molecular target: tau preformed fibrils (PFF) (Homo sapiens, UniProt P10636); experiment: ThT assay on tau preformed fibrils (PFF); type: biochemical; conditions: DTT 5 mM
Sequence of tau preformed fibrils (PFF) (P10636 1-441 isoform P10636-8): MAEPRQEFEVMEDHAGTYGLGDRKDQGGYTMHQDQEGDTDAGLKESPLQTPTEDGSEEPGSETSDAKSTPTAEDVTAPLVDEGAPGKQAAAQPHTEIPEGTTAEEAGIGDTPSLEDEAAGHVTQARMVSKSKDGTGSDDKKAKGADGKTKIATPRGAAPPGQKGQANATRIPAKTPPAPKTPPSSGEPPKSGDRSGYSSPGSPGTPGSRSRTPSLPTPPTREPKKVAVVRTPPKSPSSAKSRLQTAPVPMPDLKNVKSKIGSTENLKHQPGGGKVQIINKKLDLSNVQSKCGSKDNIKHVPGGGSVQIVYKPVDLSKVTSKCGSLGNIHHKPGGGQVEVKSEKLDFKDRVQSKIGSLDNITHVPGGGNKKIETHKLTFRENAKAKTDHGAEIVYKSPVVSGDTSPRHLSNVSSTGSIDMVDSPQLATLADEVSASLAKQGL
Procedure: HEK293 cells were transfected with tau-RFP (at equivalent DNA concentration as used in the tau FRET biosensor) for 48 hours prior to the addition of tau preformed fibrils (PFF). Tau-GFP was not used as it would interfere with the thioflavin-S(ThS) signal. To make the PFF, 100 μl of purified tau proteins (10 μM) with DTT (5 mM) and heparin (0.4 mg/ml) were first incubated for 120 hours at 37° C. and shook at 1000 rpm in a thermal shaker (Thermo Fisher Scientific). After incubation, the sample was subjected to ultracentrifugation at 80,000 rpm for 30 minutes. The pellet was collected and sonicated to break up the fibrils into smaller pieces. The concentration of the fibrils was then measured by BCA. […] Cells were then imaged with a fluorescence microscope using EVOS-FL cell imaging systems at 20× magnification. Mean fluorescence intensity for each image was quantified using ImageJ and values were normalized to untransfected controls.
Thioflavin-T (ThT, Sigma, product no. T3516) was dissolved in PBS buffer and was filtered through a 0.2 μm syringe filter to make a stock solution of 2.5 mM. […] The ThT samples (50 μl each) were transferred to a black 96-well non-binding surface microplate with clear bottom (Corning product no. 3655) and incubated at 37° C. with mild shaking (200 rpm) in the Cytation 3 plate reader. […] Readings were acquired every 20 minutes for a total of 120 hours.

[3] = molecular target: T1, WT tau FRET biosensor (tau-GFP/RFP) (Homo sapiens, UniProt P10636); experiment: WT tau inter-molecular FRET biosensor in HEK293 cells (dose-response, functionality); type: cell-based; parameters: cDNA encoding full-length 2N4R tau (441 amino acids); […]; expressed in transfected cells; host or cells: HEK293, transient, tau-GFP:tau-RFP plasmids 1:20
T1 sequence (P10636 1-441 isoform P10636-8): as above
T1 sequence (P10636 1-441 isoform P10636-8): as above
Procedure: (§1) HEK293 and SH-SY5Y cells (ATCC) were cultured in phenol red-free Dulbecco's Modified Eagle Medium (DMEM, Gibco) supplemented with 2 mM L-Glutamine (Invitrogen), heat-inactivated 10% fetal bovine serum (FBS HI, Gibco), 100 U/ml penicillin and 100 μg/ml streptomycin (Gibco). Cell cultures were maintained in an incubator with 5% CO2 (Forma Series II Water Jacket CO2 Incubator, Thermo Scientific) at 37° C. […] To generate stable cell lines expressing GFP-tau-RFP or tau-GFP only, HEK293 cells were transiently transfected using Lipofectamine 3000 with GFP-tau-RFP or tau-GFP DNA plasmids. Transiently transfected cells were treated with G418 (Enzo Life Sciences, Farmingdale, N.Y.) to eliminate non-expressing cells. Stable cell lines expressing GFP-tau-RFP or tau-GFP with the largest population of expressing cells were selected by fluorescence microscopy. The GFP-linker-RFP (linker contains 32 amino acids, GFP-32AA-RFP) control stable cell line was generated as described previously. The control cells expressing only free soluble fluorophores (GFP or RFP only) were generated by transiently transfecting HEK293 cells using Lipofectamine 3000 with plasmids containing GFP or RFP DNAs at the same plasmid concentration as the inter-molecular tau FRET biosensor.
(§2) The compound was dissolved in DMSO to make a 10 mM stock solution, which was serially diluted in 96-well mother plates. […]

[4] = molecular target: purified recombinant full-length 2N4R wild-type (WT) tau protein (Homo sapiens, UniProt P10636); experiment: Surface plasmon resonance (SPR) binding assay, WT tau; conditions: for direct binding to immobilized tau protein: 1 nM to 5 μM
Sequence of purified recombinant full-length 2N4R wild-type (WT) tau protein (P10636 1-441 isoform P10636-8): as above

[5] = molecular target: T2, tau intra-molecular FRET biosensor (GFP-tau-RFP) (Homo sapiens, UniProt P10636); experiment: Cellular tau intra-molecular FRET biosensor, dose-response; type: cell-based; conditions: GFP-tau-RFP stable HEK293 cells; read-out: EC50, reduction of intra-molecular FRET
T2 construct: The FRET biosensors express full-length 2N4R wild-type (WT) tau; […]; expressed in transfected cells
T2 sequence (P10636 1-441 isoform P10636-8): as above
Procedure: To generate tau-GFP and tau-RFP, cDNA encoding full-length 2N4R tau (441 amino acids) was fused to the N-terminus of EGFP and TagRFP vectors. […] The GFP-tau-RFP was generated by fusing the N-terminal of tau to the C-terminus of GFP and the C-terminus of tau to the N-terminus of RFP. All constructs contain the monomeric mutation A206K to prevent constitutive fluorophore clustering.
as §1, with “The control cells expressing only free soluble fluorophores (GFP or RFP only) were generated by transiently transfecting HEK293 cells using Lipofectamine 3000 with plasmids containing GFP or RFP DNAs at the same plasmid concentration as the inter-molecular tau FRET biosensor.” left out

[6] = test system: GFP-32AA-RFP; experiment: GFP-32AA-RFP fluorophores-only FRET control; type: cell-based, human
Procedure: as §1, §2

[7] = test system: soluble free GFP/RFP; experiment: Soluble free GFP/RFP-only FRET control; type: cell-based, human
Procedure: as §1, §2

[8] = test system: WT 2N4R tau; experiment: Single-molecule FRET (smFRET) on labelled tau monomer; type: biochemical; conditions: 5 μM
Text: For site-specific labeling with maleimide-reactive fluorophores, cysteine residues were introduced using QuikChange Site-Directed Mutagenesis (Stratagene). Naturally occurring cysteines were mutated to serines. Labelling positions were selected to roughly mark the boundaries of the N-terminal domain or the proline-rich and microtubule-binding region of tau. Tau protein was purified as described above and labeled immediately following purification following published protocols. Briefly, the protein (typically 200 μL of ˜100 μM protein) was incubated with 1 mM DTT for 30 minutes at room temperature followed by exchange into labeling buffer (20 mM Tris pH 7.4, 50 mM NaCl, and 6 M guanidine HCl) to remove DTT. […]
Single-molecule FRET measurements were carried out using ˜30 pM of labelled tau in phosphate buffer (40 mM potassium phosphate, 50 mM KCl, pH 7.4) in 8-chambered Nunc coverslips (ThermoFisher) passivated with poly(ethylene glycol) poly(L-lysine) (PEG-PLL) to reduce protein adsorption to the chambers. […] Fluorescence emission was collected through the objective and passed through a 150 μm diameter pinhole. Photons were separated by an HQ585LP dichroic in combination with ET525/50M and HQ600LP filters and detected by avalanche photodiodes. […] The FRET efficiency (ETeff) was calculated using SymphoTime 64 software. […]

[9] = molecular target: T1, WT tau FRET biosensor (tau-GFP/RFP); experiment: Pilot HTS of NCC library with tau FRET biosensor (fluorescence lifetime); conditions: 10 μM, 2 hours
[10] = control, 72 hours of incubation

Sequence of purified WT tau proteins (P10636 1-441 isoform P10636-8): as above

O=c1c(O)c(-c2ccc(O)c(O)c2)oc2c(O)c(O)cc(O)c12 [gossypetin]
direct effect on ThT fluorescence [1, 10]: do not interfere with ThT fluorescence
ThT signal from tau preformed fibrils (PFF) [2]: showed a significant decrease
sensitivity of the FRET biosensor to the compound ([3]; functionality test): not

CCc1oc2ccccc2c1C(=O)c1cc(Br)c(O)c(Br)c1 [Benzbromarone]
direct binding to immobilized tau protein [4]: no direct binding or interaction

CCCCNc1cc(C(=O)O)cc(S(N)(=O)=O)c1Oc1ccccc1 [Bumetanide]
direct binding to immobilized tau protein [4]: no direct binding or interaction

CC(C)c1ccc2c(c1)c(SC(C)(C)C)c(CC(C)(C)C(=O)O)n2Cc1ccc(Cl)cc1 [MK-886]
direct binding to immobilized tau protein [4]: dose-dependent binding
Kd ([4]; steady-state, immobilized tau, 25° C.): 178 nM
EC50 [5]: 2120 nM
FRET change in GFP-32AA-RFP control cells [6]: does not cause any significant FRET change
FRET change in soluble free GFP/RFP-only control cells [7]: does not cause any significant FRET change
smFRET change, N-terminal domain labelled construct [8]: only a minor decrease in FRET; also recorded: only minor differences
smFRET change, PRR/MTBR labelled construct [8]: substantial increase in FRET; also recorded: substantially more compact (increase in FRET)
direct effect on ThT fluorescence [1, 10]: did not have a direct effect on ThT fluorescence; also recorded: do not interfere with ThT fluorescence
nucleation of fibril formation without heparin [1, 10]: unable to nucleate tau fibrillization; also recorded: did not act to nucleate for fibril formation; also recorded: does not act as a nucleation center
lag phase of tau β-sheet fibril formation ([1]; heparin 0.4 mg/ml, MK-886 0.5 and 5 μM): reduces the lag phase; also recorded: shortens the lag phase
ThT signal from tau preformed fibrils (PFF) [2]: did not reduce the ThT signal
size of FRET change among the hits [9]: strongest change in FRET; also recorded: largest FRET change
EC50 ([3]; read-out: EC50, decrease of FRET efficiency, WT tau biosensor): 1400 nM

Oc1cc(Cl)ccc1Oc1ccc(Cl)cc1Cl [Triclosan]
direct binding to immobilized tau protein [4]: no direct binding or interaction

Cc1cccc(Nc2ccncc2S(=O)(=O)NC(=O)NC(C)C)c1 [Torsemide]
direct binding to immobilized tau protein [4]: no direct binding or interaction
